Columns and labels:
blood pressure [1] = test: Effects on the Cardiovascular Systems (anesthetized dogs, i.v.); format: in vivo, Mongrel dogs; conditions: 10 μg/kg i.v.
Protocol: (2) Effects on the Cardiovascular Systems
Mongrel dogs of either sex were anesthetized with intravenous administration of 30 mg/Kg pentobarbital, and after tracheal intubation, the experiments were performed under artificial respiration. After thoracotomy, heart rate, blood pressure, left ventricle pressure, max. dLVP/dt, pulmonary artery pressure, central venous pressure, cardiac output and the coronary artery blood flow were measured. The effects of test compound on these parameters were evaluated by administering it through the cannula indwelt in the femoral vein. The present compounds are effective for lowering blood pressure at a dose of 1 to 1000 μg/kg i.v.

[2] = tested on: 3,4-Diaminopyridine Induced Rhythmic Contractions; test: Effects on 3,4-Diaminopyridine Induced Rhythmic Contractions (isolated coronary artery rings); set-up: species or system Mongrel dogs; conditions: Canis lupus familiaris, isolated dog coronary artery rings, 10 mM 3,4-diaminopyridine; for IC50: read-out: IC50 (inhibitory effect on the frequency of the rhythmic contractions); for IC100: read-out: IC100 (inhibitory effect on the frequency of the rhythmic contractions)
Protocol: (1) Effects on 3,4-Diaminopyridine Induced Rhythmic Contractions
The experiment was carried out according to the method of Uchida, Sugimoto, et al. (Myakkangaku, 24, 133-143, 1984). Mongrel dogs of either sex were anesthetized with intravenous administration of 30 mg/Kg pentobarbital and were sacrificed by bleeding and then, the heart was excised from each animal. In the Krebs-Henseleit solution, the left circumflex branch or the anterior descending branch was isolated and cut into rings about 2 mm in width. The ring segments were fixed to a stainless-steal hook, and suspended in 37° C. Krebs-Henseleit solution aerated with a mixed gas (95% O2 and 5% CO2) under a tension load of 1.0 g, and isometric contractions were recorded. After the specimen was stabilized for 30 minutes, and rhythmic contractions were induced by treatment with 10 mM 3,4-diamiopyridine. After the amplitude and frequency of rhythmic contractions became substantially steady, a test compound was cumulatively added to the nutritious solution, and the concentration-response curves for the amplitude and frequency of the contractions were constructed and efficacy was evaluated.
[…] (the concentrations required to inhibit the frequency of the rhythmic contractions) of the compounds of this invention are between 0.1 and 10 μM.

coronary artery = test: Coronary Vasodilating Effect (anesthetized dogs, intracoronary); format: in vivo, Mongrel dogs; conditions: i.a.; action of 300 μg papaverine set as 100%
Protocol: (3) Coronary Vasodilating Effect
Mongrel dogs of either sex were anesthetized with intravenous administration of 30 mg/Kg pentobarbital.
After tracheal intubation, the experiments was conducted under artificial respiration. After thoracotomy, the left circumflex branch was perfused with the autologous blood derived from the carotid artery at a constant pressure through an extracorporeal circuit. Coronary blood flow was measured with an electromagnetic flow probe installed in the extra-corporeal circuit. The test compound was administered directly into the coronary artery through the extra-corporeal circuit and the coronary vasodilating effects were evaluated.
The dilating action was expressed as percentage with the action of 300 μg papaverine being set as 100%, and the dose required to produce a blood flow increase of 100% (ED100pap) was calculated.

blood pressure [3] = test: Hypotensive Effect in spontaneously hypertensive rats (oral); format: in vivo, Spontaneously hypertensive rats (SHR) of Okamoto-Aoki strain; conditions: 300 μg/Kg p.o.; conscious SHR
Protocol: Spontaneously hypertensive rats (SHR) of Okamoto-Aoki strain were anesthetized with pentobarbital, 60 mg/kg i.p. Then, a cannula for blood pressure measurement was indwelt in the left common carotid artery and the other end of the cannula was led out extracorporeally from the posterior neck. After a stabilization period of 4-5 days, blood pressure and heart rate were measured under freely moving condition.
The test compound was suspended in 0.5% methylcellulose solution and the suspension was orally administered in a volume of 5 ml/Kg and the efficacy was evaluated.

| IC50 [2] [nM] | SMILES | MBP (mean blood pressure-lowering effect) (blood pressure [1]) | IC100 [2] [µM] | ED100PAP (dose required to produce a blood flow increase of 100%) (coronary artery) [µg] | MBP (blood pressure [3]) |
| --- | --- | --- | --- | --- | --- |
| 170 | CC1(C)CN(c2cccc[n+]2[O-])c2cc3no[n+]([O-])c3cc2O1 [Example 4, 7,8-Dihydro-6,6-dimethyl-8-(2'-pyridyl)-6H-[1,4]oxazino[2,3-f][2,1,3]benzoxadiazole 3,1'-dioxide] | -10 Δ% | 1.23 | – | – |
| 150 | CC1(C)CN(c2cccc[n+]2[O-])c2cc3nonc3cc2O1 [Example 2, 2-(7,8-dihydro-6,6-dimethyl-6H-[1,4]oxazino[2,3-f][2,1,3]benzoxadiazol-8-yl)pyridine N-oxide] | -33 Δ% | 0.66 | 3.5 | -45 Δ% |

Reference: patent US5278158A, “Oxazinobenzazole compounds” (Yamanouchi Pharmaceutical Co., Ltd., priority 1991, dated 1994)
